Experimental data reported in article PMC10742472, “Synthesis and Characterisation of Platinum(II) Diaminocyclohexane Complexes with Pyridine Derivatives as Anticancer Agents” (International Journal of Molecular Sciences, 2023).

Assays:
[1] = system: H460 (Lung); assay: MTT cytotoxicity assay, H460; format: cell-based; conditions: 72 h exposure
[2] = system: HT29 (Colon); assay: MTT cytotoxicity assay, HT29; format: cell-based; conditions: 72 h exposure
[3] = system: Du145 (Prostate); assay: MTT cytotoxicity assay, Du145; format: cell-based; conditions: 72 h exposure
[4] = system: SJ-G2 (Glioblastoma); assay: MTT cytotoxicity assay, SJ-G2; format: cell-based; conditions: 72 h exposure
[5] = system: BE2-C (Neuroblastoma); assay: MTT cytotoxicity assay, BE2-C; format: cell-based; conditions: 72 h exposure
[6] = system: MCF-7 (Breast); assay: MTT cytotoxicity assay, MCF-7; format: cell-based; conditions: 72 h exposure
[7] = system: U87 (Glioblastoma); assay: MTT cytotoxicity assay, U87; format: cell-based; conditions: 72 h exposure
[8] = system: A431 (Skin); assay: MTT cytotoxicity assay, A431; format: cell-based; conditions: 72 h exposure
[9] = system: MIA (Pancreas); assay: MTT cytotoxicity assay, MIA; format: cell-based; conditions: 72 h exposure
[10] = system: MCF10A (Breast, Normal); assay: MTT cytotoxicity assay, MCF10A non-cancer breast cells; format: cell-based; conditions: 72 h exposure
[11] = system: Calf-thymus DNA (ctDNA); assay: Fluorescent intercalator displacement (FID) ctDNA binding assay with ethidium bromide; design: Ka (binding coefficient) / KF (binding constant for fluorescence) / Kq (bimolecular quenching constant) / KSV (Stern–Volmer quenching constant): unit not given here; conditions: 75 µM ethidium bromide, 150 µM ctDNA, pH 7.0
Method: To achieve this, the fluorescent signal of a DNA intercalator, in this case, ethidium bromide (EtBr), is measured as increasing concentrations of PC are added. As the PC displaces the EtBr, the fluorescence of the mixture is diminished, and the DNA binding capacity of the complex can be calculated from the fluorescence measurement. Calf-thymus DNA (ctDNA) was used and saturated with EtBr. The change in fluorescence is monitored as the complex is titrated into this solution. Once the decrease in fluorescence plateaued, the titration was ended. […] The fluorescence was measured from 550-750 nm and excited at 480 nm. Importantly, the cuvette was inverted four times, and the solution was incubated for 3 min after the addition of […] to allow adequate time for the PCs to interact with the DNA before scanning. […] A plot of F0/F against [PC] using experimental values allowed the determination of Kq and KSV from the slope as per Equation (5). (5) […] where n is the number of ethidium ligands that are displaced per PC. It is important to note that this expression is a simplification of the true binding interaction, as it ignores the effect of EtBr on the binding equilibrium. […] A plot of Log10[(F0 - F)/F)] against Log10[PC] was used to determine KF and n from the intercept and slope, respectively.

[12] = format: physicochemical
Method: Lipophilicity was calculated using RP-HPLC. A stock solution of each PC was injected at different isocratic ratios ranging from 70–90% solvent B (organic) at a flow rate of 1 mL·min^−1 [32, 33, 34]. The complexes have low solubility in water, often requiring DMSO to make concentrated solutions. Yet the LogK’ calculated using these experimental data indicated high lipophilicity, which is typical for 2+ charged complexes. […] When heat was applied, they would not precipitate out of the solution after cooling. This confirmed that a lack of persistence was the cause of the “observed” low solubility in H2O. […] Their increased lipophilicity may indicate they have the potential to be administered orally, a characteristic usually associated with Pt(IV) complexes. Other factors, such as stability and cellular absorption, would need to be considered before the potential of these Pt(II) anticancer agents could be evaluated.
Lipophilicity was evaluated using RP-HPLC, whereby LogKw is calculated by injecting a stock solution of the PC at different isocratic ratios ranging from 70–90% solvent B (organic) at a flow rate of 1 mL·min^−1. An Agilent Technologies 1260 Infinity machine equipped with a Phenomenex Onyx™ Monolithic C18 reverse phase column (100 × 4.6 mm, 130 Å) was used to determine purity. The mobile phase comprised 0.06% TFA in water (solvent A) and 0.06% TFA in 90:10 ACN:H2O mixture (solvent B). The PC peak was eluted outside the dead zero volume time to avoid inaccurate results. The dead zero volume time was determined using potassium iodide as an external dead volume marker, with further details in the Supplementary Materials. The subsequent peaks were recorded, and K was calculated using Equation (6). (6) K=tr−t0/t0 where K is the capacity factor, tr is the retention time of the analyte, and t0 is the dead time determined using a solution of KI in the same column. At least five different isocratic ratios were used to assess each PC, and each experiment was repeated three times. LogK’ was then calculated and plotted against the concentration of ACN in the mobile phase. […] (7) LogK^′=Sφ+LogKw where S is the slope, φ is the concentration of ACN in the mobile phase, and LogKw represents the capacity factor of the compound in 100% water (Figure S49).

Molecule	GI50 [1]	GI50 [2]	GI50 [3]	GI50 [4]	GI50 [5]	GI50 [6]	GI50 [7]	GI50 [8]	GI50 [9]	GI50 [10]	Binding Stoichiometry [11]	KF (binding constant for fluorescence) [11]	KSV (Stern–Volmer quenching constant) [11]	Ka (binding coefficient) [11]	Kq (bimolecular quenching constant) [11]	n (molar equivalents of PC at the point of intersection) [11]	ΔFsat (change in fluorescence at the point of binding) [11]	Lipophilicity [12]
N.N.[Cl][Pt][Cl] [Cisplatin, reference compound]	2.4 ± 0.3 µM	11 ± 1.9 µM	1.9 ± 0.2 µM	7.5 ± 1.3 µM	0.4 ± 0.1 µM	6.5 ± 0.8 µM	4 ± 1.1 µM	1.2 ± 0.1 µM	–	–	–	–	–	–	–	–	–	–
[Cl][Pt][Cl].c1ccc(C2CCCN2)nc1 (stereo not drawn) [Complex 1, [Pt(PyPy)(Cl)2]]	16 ± 1.7 µM	53 ± 1 µM	> 50 µM	> 50 µM	> 50 µM	30 ± 1 µM	36 ± 1.5 µM	> 50 µM	> 50 µM	> 50 µM	3.61	2.69 × 10^3	1.65 × 10^3	5.05 × 10^4	0.40 × 10^3	0.91	99.1	–
[Cl][Pt][Cl].c1ccc(-c2ncc[nH]2)nc1 [Complex 2, [Pt(ImPy)(Cl)2]]	4 ± 1 µM	34 ± 2 µM	36 ± 1.3 µM	14 ± 0.17 µM	37 ± 4 µM	25 ± 2.3 µM	30 ± 2 µM	42 ± 3.5 µM	29 ± 2.3 µM	13 ± 0.6 µM	3.82	3.12 × 10^3	1.68 × 10^3	2.75 × 10^4	0.50 × 10^3	1.18	80.9	–
[Cl][Pt][Cl].c1ccc(-c2nc3ccccc3[nH]2)nc1 [Complex 3, [Pt(BImPy)(Cl)2]]	15 ± 3.1 µM	> 50 µM	> 50 µM	42 ± 1.5 µM	> 50 µM	12 ± 1.2 µM	37 ± 2 µM	47 ± 2.5 µM	> 50 µM	45 ± 3.2 µM	3.40	3.72 × 10^3	2.18 × 10^3	5.10 × 10^4	0.51 × 10^3	1.24	110.3	–
N[C@H]1CCCC[C@@H]1N.[Pt+2].c1ccc(C2CCCN2)nc1 [Complex 4a, [Pt(2-pyrrolidin-2-yl pyridine)(1S,2S-(+)-diaminocyclohexane)]^2+]	4.4 ± 0.7 µM	> 50 µM	47 ± 1.7 µM	17 ± 1.9 µM	37.5 ± 0.5 µM	3.2 ± 0.6 µM	48 ± 2.6 µM	9 ± 2.3 µM	12 ± 1 µM	42 ± 3 µM	1.48	6.20 × 10^3	4.16 × 10^3	1.06 × 10^4	0.83 × 10^3	1.83	135.0	2.68 ± 0.02
N[C@H]1CCCC[C@@H]1N.[Pt+2].c1ccc(-c2ncc[nH]2)nc1 [Complex 5a, [Pt(2-(1H-Imidazol-2-yl)pyridine)(1S,2S-(+)-diaminocyclohexane)]^2+]	0.29 ± 0.05 µM	0.56 ± 0.1 µM	0.29 ± 0.07 µM	2.7 ± 0.46 µM	0.21 ± 0.04 µM	0.15 ± 0.03 µM	0.036 ± 0.009 µM	0.37 ± 0.06 µM	0.43 ± 0.07 µM	0.15 ± 0.03 µM	0.80	3.16 × 10^3	2.11 × 10^3	5.89 × 10^4	0.36 × 10^3	0.87	122.4	2.50 ± 0.02
N[C@H]1CCCC[C@@H]1N.[Pt+2].c1ccc(-c2nc3ccccc3[nH]2)nc1 [Complex 6a]	0.26 ± 0.04 µM	0.45 ± 0.02 µM	0.3 ± 0.04 µM	2.7 ± 0.29 µM	0.19 ± 0.02 µM	0.16 ± 0.03 µM	0.034 ± 0.003 µM	0.36 ± 0.05 µM	0.3 ± 0.03 µM	0.15 ± 0.01 µM	0.84	2.94 × 10^3	2.12 × 10^3	0.66 × 10^4	0.30 × 10^3	0.71	116.7	2.42 ± 0.02
[Pt(2-(1H-Imidazol-2-yl)pyridine)(1R,2R-(+)-diaminocyclohexane)]^2+ [Complex 5b]	0.37 ± 0.05 µM	0.75 ± 0.07 µM	0.44 ± 0.07 µM	4.5 ± 0.6 µM	0.3 ± 0.05 µM	0.3 ± 0.07 µM	0.05 ± 0.01 µM	0.49 ± 0.07 µM	0.56 ± 0.11 µM	0.22 ± 0.03 µM	0.78	3.66 × 10^3	2.54 × 10^3	3.15 × 10^4	0.41 × 10^3	0.95	165.9	–
[Pt(2-(2-pyridyl)benzimidazole)(1R,2R-(+)-diaminocyclohexane)]^2+ [Complex 6b]	16 ± 1.2 µM	33 ± 1.2 µM	22 ± 1.5 µM	38 ± 5.9 µM	30 ± 2.1 µM	8 ± 1.6 µM	7.6 ± 0.46 µM	24 ± 2.6 µM	30 ± 6.9 µM	17 ± 1.5 µM	0.94	2.84 × 10^3	2.07 × 10^3	7.43 × 10^4	0.30 × 10^3	0.67	113.0	2.46 ± 0.025
[Pt(2-pyrrolidin-2-yl pyridine)(1R,2R-(+)-diaminocyclohexane)]^2+ [Complex 4b]	31 ± 0.88 µM	> 50 µM	> 50 µM	> 50 µM	31 ± 1.2 µM	12.5 ± 0.76 µM	43 ± 0.67 µM	30 ± 4.7 µM	43 ± 1 µM	45 µM	1.17	5.77 × 10^3	3.85 × 10^3	1.40 × 10^4	0.74 × 10^3	1.68	121.0	–
